Data from patent US20230398125A1, “TREATING HEPATITIS” (Albireo AB, priority 2022, published 2023).

Key:
[1] = test system: HBV (HepG2 AD38 genotype D); assay: Combination of Compound 1 with tenofovir in HBV-infected primary human hepatocytes (MacSynergy II); format: cell-based, hepatitis B virus; settings: summary of studies
Protocol: In two sets of experiments, the effect of combining Compound 1 with tenofovir was studied. Effects of the drug combination were calculated based on the activity of the two compounds when tested alone. The expected additive antiviral protection (based on the dose response curves of the individual agents used alone) was subtracted from the experimentally determined antiviral activity at each combination concentration resulting in a positive value (synergy), a negative value (antagonism), or zero (additivity). […] The results of the combination assays were expressed as a synergy volume μM2% calculated at the 95% confidence interval using the MacSynergy II template.
For these studies, synergy was defined as drug combinations yielding synergy volumes greater than 50 μM2%. Slightly synergistic activity and highly synergistic activity have been defined as yielding synergy volumes of […] and >100 μM2%, respectively.
Synergy volumes between −50 and 50 μM2% were considered additive and synergy volumes less than −50 μM2% were considered antagonistic.

[2] = Body weight, mortality and observations in HBV-infected PXB mice; format: in vivo; settings: 10 and 30 mg/kg
Mouse IBAT = molecular target: T1, Mouse IBAT (Mus musculus, UniProt P70172); assay: 3H-taurocholic acid uptake in mouse IBAT-overexpressing cells; format: cell-based; settings: 3H-taurocholic acid transport
T1 construct: expressed in transfected cells; kept under puromycin selection
T1 sequence (P70172 1-348): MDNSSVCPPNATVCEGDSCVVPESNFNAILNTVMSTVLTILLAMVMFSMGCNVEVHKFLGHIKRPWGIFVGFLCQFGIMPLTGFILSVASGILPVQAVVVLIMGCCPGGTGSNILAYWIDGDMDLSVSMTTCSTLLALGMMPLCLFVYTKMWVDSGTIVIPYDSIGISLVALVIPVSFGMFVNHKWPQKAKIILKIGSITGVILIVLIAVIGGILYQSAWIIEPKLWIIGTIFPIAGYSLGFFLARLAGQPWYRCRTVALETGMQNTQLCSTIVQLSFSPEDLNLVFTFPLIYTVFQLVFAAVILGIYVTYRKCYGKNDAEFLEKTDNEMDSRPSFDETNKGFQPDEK
Protocol: 10,000 cells (Human & Mouse IBAT-overexpressing cells) were seeded in 96-wells plate in 100 μL MEM-alpha medium supplemented with 10% FBS containing puromycin (10 μg/mL) and incubated at 37° C. in 5% CO2 for 48 hrs. After incubation media was decanted from the wells, cells were washed two times with 250 μL of basal MEM-alpha medium (FBS-free). After each wash, plates were tapped against paper towel to ensure maximum removal of residual media. Test inhibitor dilutions (highest test concentration being 10 μM, 3-fold serial dilution, 10 concentrations) prepared in DMSO were added to the incubation mix (maintaining 0.2% final DMSO concentration) containing 0.25 μM ^3H-taurocholic acid and 5 μM of cold taurocholic acid. […]
After incubation, the reaction was stopped by keeping the plates on ice water mix for 2-3 minutes and then the incubation mix was aspirated completely from the wells. […] 100 μL of MicroScint-20 was added to the wells and kept overnight at room temperature before reading the plates in MicroBeta2 liquid Scintillation Counter from PerkinElmer under ^3H Test for I/L-BAT protocol (set at 120 seconds reading time per well, with normal plate orientation).
Percentage inhibitions were calculated with respect to the assay controls. […]

CCCCC1CN(c2ccccc2)c2cc(SC)c(O/C=C(\F)C(=O)O)cc2S(=O)(=O)N1C (stereo not drawn) [Compound 1, (Z)-3-((3-butyl-2-methyl-7-(methylthio)-1,1-dioxido-5-phenyl-2,3,4,5-tetrahydro-1,2,5-benzothiadiazepin-8-yl)oxy)-2-fluoroacrylic acid]
antiviral effect when given together with tenofovir disoproxil fumarate [1]: additive | observations related to treatment [2]: No noteworthy observations | IC50 (Mouse IBAT): 40.8 ± 4.6 nM
